The NIST ThermoML archive (doi:10.1016/j.jct.2004.10.011)

Experiment: xn = mol fraction of the nth substance listed
Conditions: Liquid, Vibrating tube method, x1 = 1

Cc1ccccc1 [toluene] + CCC(=O)c1ccccc1
mass density [kg/m3]
Conditions | 298.15 K | 308.15 K | 318.15 K | 328.15 K
100 kPa | 862.1 | 853 | 843.8 | 834.5
2130 kPa | 863.6 | 854.5 | 845.6 | 836.5
4150 kPa | 865.2 | 856.2 | 847.3 | 838.3
6180 kPa | 866.7 | 857.8 | 849 | 840.1
8210 kPa | 868.2 | 859.3 | 850.6 | 841.8
10230 kPa | 869.6 | 860.9 | 852.3 | 843.5
11250 kPa | 870.4 | 861.7 | 853.1 | 844.4
12260 kPa | 871.1 | 862.4 | 853.9 | 845.2
14290 kPa | 872.5 | 863.9 | 855.4 | 846.9
16310 kPa | 873.9 | 865.4 | 857 | 848.6
18340 kPa | 875.3 | 866.8 | 858.5 | 850.1
20370 kPa | 876.7 | 868.2 | 860 | 851.7
22390 kPa | 878 | 869.6 | 861.5 | 853.3
24420 kPa | 879.3 | 871 | 862.9 | 854.8
26450 kPa | 880.6 | 872.4 | 864.4 | 856.3
28470 kPa | 881.9 | 873.8 | 865.8 | 857.8
29490 kPa | 882.5 | 874.4 | 866.5 | 858.5
30500 kPa | 883.2 | 875 | 867.2 | 859.3
32530 kPa | 884.4 | 876.3 | 868.5 | 860.7
34550 kPa | 885.6 | 877.6 | 869.9 | 862.1
36580 kPa | 886.8 | 878.9 | 871.2 | 863.5
38600 kPa | 888 | 880.1 | 872.5 | 864.9
39620 kPa | 888.6 | 880.7 | 873.2 | 865.5
